We go through 15 molecules from ChEMBL document CHEMBL1132124 (Bioorg Med Chem Lett, 1999).

In general, pEC50 refers to the EC50 on a negative log10 scale, so that one unit is a factor of ten. Read a high pEC50 as a small EC50. The pIC50 is −log10 of the IC50, conventionally taken in molar units. A higher pIC50 goes with a small IC50.

SMILES strings stand for the structures. pEC50, pIC50: −log10 of the molar value.

For one assay, the target named is Glutamate NMDA receptor. The experiment in a line: In vitro concentration eliciting half-maximal effect on [3H]-MK 801 radioligand binding to NMDA receptor. Type of assay: protein-complex assay.
Take `O=C1CNCN1O`: the pEC50 was 5.36.

Molecule `C[C@@H]1CN(O)C(=O)[C@@H]1N` showed a pEC50 of 5.02.

A further assay has as its target T1, Glutamate receptor ionotropic, NMDA 1 (Rattus norvegicus, UniProt P35439). Kind of assay: In vitro inhibitory activity to inhibit [3H]glycine binding to NMDA receptor; IA means inactive.
Regarding `O=C1CCCN1O`, the IC50 result was “Not Active”.

On to `NC1CCONC1=O` (stereo not drawn), for which the IC50 entry was “Not Active”.

For the molecule `O=C1CNCN1`, the IC50 result is listed as “Not Active”.

Regarding `CC1NC(C)N(O)C1=O` (stereo not drawn), the IC50 entry was “Not Active”.

Regarding `NC1CS(=O)(=O)NC1=O` (stereo not drawn), the IC50 result was “Not Active”.

Regarding `O=C1CCNCN1O`, the IC50 result is reported as “Not Active”.

For the molecule `CC1ONC(=O)C1N` (stereo not drawn), the IC50 result is given as “Not Active”.

The target in a further assay is T1, Glutamate receptor ionotropic, NMDA 1. Kind of assay: In vitro inhibitory activity to inhibit [3H]glycine binding to NMDA receptor.
In turn, `CC1NCC(=O)N1O` (stereo not drawn) had a pIC50 of 4.08.

With `CC1NCN(O)C1=O` (stereo not drawn), the pIC50 is 4.11.

On to `O=C1C(CO)NCN1O` (stereo not drawn), for which the negative-log IC50 (pIC50) is 4.11.

For `C[C@@H]1CN(O)C(=O)[C@@H]1N`, the pIC50 was 5.73.

Test system in a further assay: not listed separately
Kind of assay: In vitro maximal effect on [3H]-MK 801 binding to NMDA receptor as compared to a basal value of 100%.
`N[C@@H]1CONC1=O` yielded an ME of 122%.

In the case of `O=C1CNCN1O`, the ME was 146%.

In turn, `NCC(=O)O` registered an ME of 159%.

Take `N[C@H](CO)C(=O)O`: the ME turned out to be 169%.

Molecule `C[C@@H]1CN(O)C(=O)[C@@H]1N` returned an ME of 18%.
